Assay results from patent US8067447B2, “Modulators of glucocorticoid receptor, AP-1, and/or NF-κB activity and use thereof” (Bristol-Myers Squibb Company, priority 2006, dated 2011).
Like-named read-outs stand apart in the source and are kept apart here. Each block holds one compound with its values, some of them ahead of it.

Assays:
[1] = system: AP-1 induced transcriptional activity; experiment: Cellular Transrepressional Assay (AP-1 luciferase reporter in A549 cells, PMA-activated); format: cell-based; conditions: A549 cells with 7x AP-1 luciferase reporter, 10 ng/ml PMA, read-out: AP-1 (EC50, nM) (Cellular Transrepression Assay)
Summary of the method: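 Test molecules spanning 0.1 nM to 40 μM were co-incubated 7 h with 10 ng/ml PMA in A549 cells stably carrying a 7× AP-1-driven luciferase plasmid. Repression, as % reduction of PMA-alone luminescence measured 10 min after reagent addition, was curve-fitted to give EC50s.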

[2] = target: T1, human full-length glucocorticoid receptor (Homo sapiens, UniProt P04150); experiment: Glucocorticoid Receptor Binding Assay (II), fluorescence polarization competitor kit (Fluormone GS1); conditions: cell lysate with recombinant human full-length GR, 1 nM Fluormone GS1, FP
T1 construct: a cell lysate containing recombinantly expressed human full-length glucocorticoid receptor; purchased PanVera Co., Madison, Wis; P2816
T1 sequence (P04150 1-777): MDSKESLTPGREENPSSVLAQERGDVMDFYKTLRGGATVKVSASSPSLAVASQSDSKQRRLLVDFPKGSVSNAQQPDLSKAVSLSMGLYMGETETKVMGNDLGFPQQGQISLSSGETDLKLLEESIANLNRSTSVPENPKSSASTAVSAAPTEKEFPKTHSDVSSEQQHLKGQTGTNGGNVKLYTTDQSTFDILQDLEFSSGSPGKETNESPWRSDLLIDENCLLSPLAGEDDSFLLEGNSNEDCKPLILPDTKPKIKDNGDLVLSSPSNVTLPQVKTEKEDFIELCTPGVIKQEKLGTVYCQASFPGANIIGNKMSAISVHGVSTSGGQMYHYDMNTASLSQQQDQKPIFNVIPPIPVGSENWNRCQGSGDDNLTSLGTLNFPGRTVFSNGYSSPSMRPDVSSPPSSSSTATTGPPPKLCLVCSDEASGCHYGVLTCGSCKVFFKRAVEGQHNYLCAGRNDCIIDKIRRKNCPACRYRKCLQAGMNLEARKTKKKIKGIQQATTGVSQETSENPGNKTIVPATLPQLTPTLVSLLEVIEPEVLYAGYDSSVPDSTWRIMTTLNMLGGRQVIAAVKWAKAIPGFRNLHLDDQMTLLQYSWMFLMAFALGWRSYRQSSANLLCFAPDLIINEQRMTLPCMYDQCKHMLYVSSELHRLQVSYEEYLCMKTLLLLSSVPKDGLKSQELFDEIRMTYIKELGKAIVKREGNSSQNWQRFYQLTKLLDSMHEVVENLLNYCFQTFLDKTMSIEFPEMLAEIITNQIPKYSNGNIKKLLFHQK
Procedure: In order to measure the binding of compounds on the glucocorticoid receptor a commercially available kit was used (Glucocorticoid receptor competitor assay kit, PanVera Co., Madison, Wis., P2816). Briefly, a cell lysate containing recombinantly expressed human full-length glucocorticoid receptor was mixed with a fluorescently labeled glucocorticoid (1 nM Fluormone GS1) in the presence or absence of test compound. After one hour at room temperature, the fluorescence polarization (FP) of the samples were measured.

Structure (SMILES): CC(C)(C(=O)NC1CC1)C(Cc1ccccc1)c1ccc2c(cnn2-c2ccc(F)cc2)c1 (stereo not drawn) [Example 128, N-cyclopropyl-3-(1-(4-fluorophenyl)-1H-indazol-5-yl)-2,2-dimethyl-4-phenylbutanamide]
EC50 ([1]; Homo sapiens, A549, 7 h): 673 nM
Ki [2]: 0.68 nM

Structure (SMILES): COC(=O)c1ccc(-n2ncc3cc(C(c4ccccc4)C(C)(C)C(=O)Nc4nncs4)ccc32)cc1 (stereo not drawn) [Example 88, methyl 4-(5-(3-(1,3,4-thiadiazol-2-ylamino)-2,2-dimethyl-3-oxo-1-phenylpropyl)-1H-indazol-1-yl)benzoate]
EC50 ([1]; Homo sapiens, A549, 7 h): > 10000 nM
Ki [2]: 26 nM

Structure (SMILES): CC(C)C(c1ccc2c(cnn2-c2ccc(F)cc2)c1)C(C)(C)C(=O)Nc1nncs1 (stereo not drawn) [Example 48, 3-(1-(4-fluorophenyl)-1H-indazol-5-yl)-2,2,4-trimethyl-N-(1,3,4-thiadiazol-2-yl)pentanamide]
EC50 ([1]; Homo sapiens, A549, 7 h): 81 nM
Ki [2]: 2.4 nM

Structure (SMILES): CC(C)(CC(=O)Nc1nncs1)c1ccc2c(cnn2-c2ccc(F)cc2)c1 [Example 122, 3-(1-(4-fluorophenyl)-1H-indazol-5-yl)-3-methyl-N-(1,3,4-thiadiazol-2-yl)butanamide]
EC50 ([1]; Homo sapiens, A549, 7 h): > 10000 nM
Ki [2]: 2.3 nM

Structure (SMILES): C/C=C/CC(c1ccc2c(cnn2-c2ccc(F)cc2)c1)C(C)(C)C(=O)Nc1nncs1 (stereo not drawn) [Example 55, (E)-3-(1-(4-fluorophenyl)-1H-indazol-5-yl)-2,2-dimethyl-N-(1,3,4-thiadiazol-2-yl)hept-5-enamide]
EC50 ([1]; Homo sapiens, A549, 7 h): 2500 nM
Ki [2]: 1.3 nM

Structure (SMILES): CC(C)(C(=O)Nc1nncs1)C1(c2ccc3c(cnn3-c3ccc(F)cc3)c2)CCCCC1 [Example 101, 2-(1-(1-(4-Fluorophenyl)-1H-indazol-5-yl)cyclohexyl)-2-methyl-N-(1,3,4-thiadiazol-2-yl)propanamide]
EC50 ([1]; Homo sapiens, A549, 7 h): 36 nM
Ki [2]: 1 nM

Structure (SMILES): COc1cccc(-n2ncc3cc(C(c4ccccc4)C(C)(C)C(=O)Nc4nncs4)ccc32)c1 (stereo not drawn) [Example 94, 3-(1-(3-methoxyphenyl)-1H-indazol-5-yl)-2,2-dimethyl-3-phenyl-N-(1,3,4-thiadiazol-2-yl)propanamide]
EC50 ([1]; Homo sapiens, A549, 7 h): 1200 nM
Ki [2]: 36 nM

Structure (SMILES): CC(C)(C(=O)Nc1nccs1)C1(c2ccc3c(cnn3-c3ccc(F)cc3)c2)CCCCC1 [Example 102, 2-(1-(1-(4-Fluorophenyl)-1H-indazol-5-yl)cyclohexyl)-2-methyl-N-(thiazol-2-yl)propanamide]
EC50 ([1]; Homo sapiens, A549, 7 h): 12 nM
Ki [2]: 2.8 nM

Structure (SMILES): Cc1ccc(C(c2ccc3c(cnn3-c3ccc(F)cc3)c2)C(C)(C)C(=O)Nc2nccs2)cc1 (stereo not drawn) [Example 42, 3-(1-(4-fluorophenyl)-1H-indazol-5-yl)-2,2-dimethyl-N-(thiazol-2-yl)-3-p-tolylpropanamide]
EC50 ([1]; Homo sapiens, A549, 7 h): 3.9 nM
Ki [2]: 1.9 nM

Structure (SMILES): CC(C)(C(=O)N[C@@H]1CCC[C@H]1O)[C@@H](c1ccccc1)c1ccc2c(cnn2-c2ccc(F)cc2)c1 [Example 135, (S)-3-(1-(4-fluorophenyl)-1H-indazol-5-yl)-N-(2-hydroxycyclopentyl)-2,2-dimethyl-3-phenylpropanamide]
EC50 ([1]; Homo sapiens, A549, 7 h): 40 nM
Ki [2]: 0.6 nM

Structure (SMILES): Cc1ccc(CC(c2ccc3c(cnn3-c3ccc(F)cc3)c2)C(C)(C)C(=O)Nc2nncs2)cc1 (stereo not drawn) [Example 127, 3-(1-(4-fluorophenyl)-1H-indazol-5-yl)-2,2-dimethyl-N-(1,3,4-thiadiazol-2-yl)-4-p-tolylbutanamide]
EC50 ([1]; Homo sapiens, A549, 7 h): > 10000 nM
Ki [2]: 3.8 nM

Structure (SMILES): Cc1cccc(C(c2ccc3c(cnn3-c3ccc(F)cc3)c2)C(C)(C)C(=O)Nc2nncs2)c1 (stereo not drawn) [Example 50, 3-(1-(4-fluorophenyl)-1H-indazol-5-yl)-2,2-dimethyl-N-(1,3,4-thiadiazol-2-yl)-3-m-tolylpropanamide]
EC50 ([1]; Homo sapiens, A549, 7 h): 9.7 nM
Ki [2]: 0.92 nM

Structure (SMILES): Cc1ccc(CC(c2ccc3c(cnn3-c3ccc(F)cc3)c2)C(C)(C)C(=O)Nc2nccs2)cc1 (stereo not drawn) [Example 126, 3-(1-(4-fluorophenyl)-1H-indazol-5-yl)-2,2-dimethyl-N-(thiazol-2-yl)-4-p-tolylbutanamide]
EC50 ([1]; Homo sapiens, A549, 7 h): > 10000 nM
Ki [2]: 6.8 nM

Structure (SMILES): CC(C)(CC(=O)Nc1nccs1)c1ccc2c(cnn2-c2ccc(F)cc2)c1 [Example 114, 3-(1-(4-Fluorophenyl)-1H-indazol-5-yl)-3-methyl-N-(thiazol-2-yl)butanamide]
EC50 ([1]; Homo sapiens, A549, 7 h): > 10000 nM
Ki [2]: 11 nM

Structure (SMILES): CC(C(=O)Nc1nncs1)C(c1ccccc1)c1ccc2[nH]ncc2c1 (single isomer, unassigned) [151-diast B, 3-(1H-Indazol-5-yl)-2-methyl-3-phenyl-N-(1,3,4-thiadiazol-2-yl)propanamide]
EC50 ([1]; 7 hours): 1740 nM
Ki [2]: 283 nM

Structure (SMILES): CC(C)(C(=O)NC1CCCC1O)C(Cc1ccccc1)c1ccc2c(cnn2-c2ccc(F)cc2)c1 (single isomer, unassigned) [Example 124-isomerC]
EC50 ([1]; 7 hours): 1250 nM
Ki [2]: 2.1 nM

Structure (SMILES): Cc1ccccc1C(c1ccc2c(cnn2-c2ccc(F)cc2)c1)C(C)(C)C(=O)Nc1nncs1 (stereo not drawn) [Example 49, 3-(1-(4-fluorophenyl)-1H-indazol-5-yl)-2,2-dimethyl-N-(1,3,4-thiadiazol-2-yl)-3-o-tolylpropanamide]
EC50 ([1]; Homo sapiens, A549, 7 h): 4.2 nM
Ki [2]: 1.1 nM

Other lines, results leading:

EC50 ([1]; Homo sapiens, A549, 7 h): 2 nM
Ki [2]: 1.7 nM
Structure (SMILES): CCCC(C(=O)Nc1nncs1)C(c1ccccc1)c1ccc2c(cnn2-c2ccc(F)cc2)c1 (stereo not drawn) [Example 143, 2-((1-(4-fluorophenyl)-1H-indazol-5-yl)(phenyl)methyl)-N-(1,3,4-thiadiazol-2-yl)pentanamide]

EC50 ([1]; Homo sapiens, A549, 7 h): 5000 nM
Ki [2]: 32 nM
Structure (SMILES): CC(C)(C(=O)Nc1nncs1)[C@@H](c1ccccc1)c1ccc2c(cnn2-c2ccc(F)cc2NC(N)=O)c1 [Example 161, (3S)-3-(1-(4-Fluoro-2-ureidophenyl)-1H-indazol-5-yl)-2,2-dimethyl-3-phenyl-N-(1,3,4-thiadiazol-2-yl)propanamide]

EC50 ([1]; 7 hours): 5000 nM
Ki [2]: 18 nM
Structure (SMILES): O=C(Nc1nncs1)C(c1ccccc1)C(c1ccccc1)c1ccc2c(cnn2-c2ccc(F)cc2)c1 (single isomer, unassigned) [Example 145-isomerA, 3-(1-(4-fluorophenyl)-1H-indazol-5-yl)-2,3-diphenyl-N-(1,3,4-thiadiazol-2-yl)propanamide]

EC50 ([1]; Homo sapiens, A549, 7 h): 833 nM
Ki [2]: 11 nM
Structure (SMILES): Cn1cnc(NC(=O)CC(c2ccccc2)c2ccc3c(cnn3-c3ccc(F)cc3)c2)n1 (stereo not drawn) [Example 137, 3-(1-(4-Fluorophenyl)-1H-indazol-5-yl)-N-(1-methyl-1H-1,2,4-triazol-3-yl)-3-phenylpropanamide]

EC50 ([1]; Homo sapiens, A549, 7 h): 0.55 nM
Ki [2]: 1.1 nM
Structure (SMILES): CCC(C(=O)Nc1nncs1)C(c1ccccc1)c1ccc2c(cnn2-c2ccc(F)cc2)c1 (stereo not drawn) [Example 142, 2-((1-(4-Fluorophenyl)-1H-indazol-5-yl)(phenyl)methyl)-N-(1,3,4-thiadiazol-2-yl)butanamide]

EC50 ([1]; Homo sapiens, A549, 7 h): 15 nM
Ki [2]: 2.6 nM
Structure (SMILES): CC(=O)OCC(C)(C(=O)Nc1nncs1)C(c1ccccc1)c1ccc2c(cnn2-c2ccc(F)cc2)c1 (stereo not drawn) [Example 154, 3-(1,3,4-Thiadiazol-2-ylamino)-2-((1-(4-fluorophenyl)-1H-indazol-5-yl)(phenyl)methyl)-2-methyl-3-oxopropyl acetate]

EC50 ([1]; Homo sapiens, A549, 7 h): 13 nM
Ki [2]: 4 nM
Structure (SMILES): O=C(Nc1nncs1)C1(C(c2ccccc2)c2ccc3c(cnn3-c3ccc(F)cc3)c2)CCCCC1 (stereo not drawn) [Example 150, 1-((1-(4-fluorophenyl)-1H-indazol-5-yl)(phenyl)methyl)-N-(1,3,4-thiadiazol-2-yl)cyclohexanecarboxamide]

EC50 ([1]; Homo sapiens, A549, 7 h): 135 nM
Ki [2]: 22 nM
Structure (SMILES): CC(C)(C(=O)Nc1nncs1)[C@@H](c1ccccc1)c1ccc2c(cnn2-c2ccc(F)cc2C(N)=O)c1 [Example 156, 2-(5-((S)-3-(1,3,4-Thiadiazol-2-ylamino)-2,2-dimethyl-3-oxo-1-phenylpropyl)-1H-indazol-1-yl)-5-fluorobenzamide]

EC50 ([1]; Homo sapiens, A549, 7 h): 73 nM
Ki [2]: 0.35 nM
Structure (SMILES): CC(C)(C(=O)Nc1nncs1)[C@@H](c1ccccc1)c1ccc2c(cnn2-c2ccc(F)cc2N)c1 [Example 159, (3S)-3-(1-(2-Amino-4-fluorophenyl)-1H-indazol-5-yl)-2,2-dimethyl-3-phenyl-N-(1,3,4-thiadiazol-2-yl)propanamide]

EC50 ([1]; 7 hours): 5000 nM
Ki [2]: 555 nM
Structure (SMILES): O=C(Nc1nncs1)C(c1ccccc1)C(c1ccccc1)c1ccc2c(cnn2-c2ccc(F)cc2)c1 (single isomer, unassigned) [Example 145-isomerC, 3-(1-(4-fluorophenyl)-1H-indazol-5-yl)-2,3-diphenyl-N-(1,3,4-thiadiazol-2-yl)propanamide]
